Experimental findings from BindingDB's records for doi:10.7270/Q2959G44 (Burnham Center For Chemical Genomics, 2012) are described below.

Sequence of Dual specificity protein phosphatase 3 (P51452 whole entry): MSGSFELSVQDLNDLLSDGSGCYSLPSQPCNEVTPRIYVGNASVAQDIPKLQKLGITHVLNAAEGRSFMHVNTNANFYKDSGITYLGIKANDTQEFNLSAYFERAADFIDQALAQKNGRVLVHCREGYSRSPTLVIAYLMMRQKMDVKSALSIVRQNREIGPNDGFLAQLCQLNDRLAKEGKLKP

The test has as its target Dual specificity protein phosphatase 3 (Homo sapiens, UniProt P51452). Kind of test: VHR phosphatase inhibition, dose response, selectivity assay for STEP inhibitor project, biochemical (AID 602374).
For the compound `S=C1N=C(C23CC4CC(CC(C4)C2)C3)CC(c2ccc3c(c2)OCO3)N1` (stereo not given), the IC50 is 3.52 µM.

`CCOc1cc(CN=Nc2nc(O)c(CC(=O)O)s2)ccc1OCc1ccc(Cl)cc1Cl` [2-[2-[(N''E)-N''-[4-(2,4-dichlorobenzyl)oxy-3-ethoxy-benzylidene]hydrazino]-4-keto-2-thiazolin-5-yl]acetic acid] displayed an IC50 of 2.42 µM.

`C=c1c(O)c(O)c(=C2C(=O)C(=O)C(C)C(=O)C2=O)c(O)c1O` (stereo not given) [(3E)-5-hydroxy-6-methyl-3-(2,3,5-trihydroxy-4-methyl-6-oxo-1-cyclohexa-2,4-dienylidene)cyclohex-5-ene-1,2,4-trione]: inhibition was half-maximal at 1.27 µM (IC50).

As to `O=C1C(=O)N(CCCO)C(c2ccc(Br)cc2)C1C(=O)c1ccc(Br)cc1` (stereo not given) [(4E)-5-(4-bromophenyl)-4-[(4-bromophenyl)-oxidanyl-methylidene]-1-(3-oxidanylpropyl)pyrrolidine-2,3-dione], 73.4 µM corresponded to half-maximal inhibition (IC50). This IC50 lies about 58-fold higher than the previous one.

The compound `S=C1N=C2C(=C3SCCS3)CCCC2C(c2ccccc2)N1` (stereo not given) [MLS000516376] displayed a half-maximal inhibitory concentration (IC50) of 1.23 µM.

Consider `CCN(CC)P(=O)(NC(=O)C(Cl)(Cl)Cl)N(CC)CC` [MLS000564159], for which the IC50 was found to be 3.25 µM.

Consider `CSc1ccc(CN=Nc2ccc(S(=O)(=O)Nc3ccccc3C(=O)O)cc2[N+](=O)[O-])cc1` [MLS002245633], for which half-maximal inhibition (IC50) required 1.27 µM. This IC50 is about 2.6-fold lower than that of the compound before.

On to `O=C(N/N=C/C1C=CC=CC1=O)c1cccc([N+](=O)[O-])c1` (stereo not given) [MLS002667988], for which the IC50 was 3.13 µM.

Regarding `COc1ccc(OC)c(-n2c(O)c3o[nH]c(-c4ccccc4Cl)c-3c2=O)c1` [SMR000046218], the IC50 was 0.833 µM.

`COc1ccc(CN=Nc2nc(O)c(CC(=O)O)s2)cc1OCc1ccc(Cl)cc1Cl` [[2-({3-[(2,4-dichlorobenzyl)oxy]-4-methoxybenzylidene}hydrazono)-4-oxo-1,3-thiazolidin-5-yl]acetic acid] had an IC50 of 4.79 µM.

One may read the IC50 as the concentration at which inhibition is half-maximal. High values mean weaker potency in that assay, low ones greater potency in that assay.
